The subject of one experiment is HL-60. Kind of experiment: Colony formation (clonogenic) assay. The experiment is classed as cell-based, human. To be noted: HL-60, 15 days. On the procedure:
(§1) In brief, 1 mL of 3% agarose combined with 1 mL MOLM-13, MOLM-14, MV4-11, PF-382, U937, HL-60 growth media was used as the bottom agar in a 6-well plate. […] Cells were maintained in a humidified 5% CO2 incubator at 37°C for 15 days. On the 15th day, the numbers of colonies in each well were counted and each measurement was performed in triplicate.

In the next experiment the test system is MOLM13. Kind of experiment: Colony formation (clonogenic) assay. The experiment is classed as cell-based, human. Particulars: MOLM13, 15 days. On the procedure:
as §1

The test system of a further experiment is MOLM14. Description: Colony formation (clonogenic) assay. The experiment is classed as cell-based, human. Particulars: MOLM14, 15 days. On the procedure:
as §1

Another experiment concerns U937. Description: Colony formation (clonogenic) assay. The experiment is classed as cell-based, human. To be noted: U937, 15 days. The method, then: as §1
The next experiment has as its system MV4-11. Kind of experiment: Colony formation (clonogenic) assay. The experiment is classed as cell-based, human. To be noted: MV4-11, 15 days. On the procedure: as §1
Another experiment has as its system PF382. Kind of experiment: Colony formation (clonogenic) assay. The experiment is classed as cell-based, human. To be noted: PF382, 15 days. The method, then:
as §1

The next experiment concerns the target FLT3-ITD kinase. Details: method as in PMID 22037378. To be noted: cited from earlier work.
The subject of experiment [1] is FLT3-ITD-positive AML patient primary cells. Description: Anti-proliferation, AML patient primary cells. Particulars: at 1 μM; compared to normal bone marrow cells. The experiment is classed as cell-based, human. On the procedure: Mononuclear cells were isolated from samples from AML patients identified as harboring mutant FLT3. Cells were tested in liquid culture (DMEM, supplemented with 20% FBS) in the presence of different concentrations of inhibitors. All blood and bone marrow samples from AML patients were obtained under approval of the Dana Farber Cancer Institute Institutional Review Board. The ethics committees approved the consent procedure. All studies were performed with ACUC approved protocols at DFCI.

The next experiment deals with MV4-11 cells. Description: Apoptosis effect examination (PARP, Caspase-3 immunoblot). The experiment is classed as cell-based, human. To be noted: MV4-11, 24 hours; more significantly at 1 μM. The source says: (§2) Cells were then washed in PBS and lysed in cell lysis buffer. PARP, Caspase-3, GAPDH antibodies (Cell signaling Technology) were used for immunoblotting.
In general terms: Immunoblotting shows a protein as a band on a membrane.

Another experiment relates to MOLM14 cells. The description is as above. The experiment is classed as cell-based, human. To be noted: MOLM14, 24 hours; more pronounced at 3 μM.
Text: as §2

The test system of the next experiment is BaF3. Kind of experiment: Anti-proliferation, parental BaF3 cells. The experiment is classed as cell-based. On the procedure:
Cells were grown in 96-well culture plates (3000/well). […] Cell proliferation was determined after 72 hours drug treatment. […] Cell viability was measured with the CellTiter–Glo assay (Promega, USA), according to the manufacturer's instructions, and luminescence was measured in a multi-label reader (Envision, PerkinElmer, USA). Data were normalized to control groups (DMSO) and represented by the mean of three independent measurements with standard error < 20%. GI50 values were calculated using Prism 5.0 (GraphPad Software, San Diego, CA).
(§3) Retroviral constructs for BaF3-FLT3 mutants were made based on the pMSCVpuro (Clontech) backbone. For TEL-FLT3 vector, the first 1 kb of human TEL gene with an artificial myristoylation sequence ([…]) was cloned into pMSCVpuro retroviral vector, followed by a 3xFLAG tag sequence and a stop codon. Then the kinase domain coding sequence of FLT3 was inserted in-frame between TEL and 3× FLAG sequences. For full-length expression vectors, the coding sequences of FLT3 variants were directly cloned in pMSCVpuro vector with a 3X FLAG tag at the C-terminal end. All mutagenesis studies were performed using the QuikChange Site-Directed Mutagenesis Kit (Stratagene) following the manufacturer's instructions. […]

Another experiment deals with FLT3-ITD-F691L. Kind of experiment: Auto-phosphorylation of FLT3 in transformed BaF3 isogenic cells. The experiment is classed as cell-based.
Text: (§4) The following antibodies were purchased from Cell Signaling Technology (Danvers, MA): FLT3 (8F2) Rabbit mAb (#3462), Phospho-FLT3 (Tyr589/591) (30D4) Rabbit mAb (#3464), NF-κB p65 (D14E12) XP® Rabbit mAb (#8242), Phospho-NF-κB p65 (Ser536) (93H1) Rabbit mAb (#3033), Stat5 Antibody (#9363), Phospho-Stat5 (Tyr694) (C71E5) Rabbit mAb (#9314), c-Myc (D84C12) XP® Rabbit mAb (#5605), Akt (pan) (C67E7) Rabbit mAb (#4691), Phospho-Akt (Thr308) (244F9) Rabbit mAb (#4056), Phospho-Akt (Ser473) (D9E) XP® Rabbit mAb (#4060), p44/42 MAPK (Erk1/2) (137F5) Rabbit mAb (#4695), Phospho-p44/42 MAPK (Erk1/2) (Thr202/Tyr204) (D13.14.4E) XP® Rabbit mAb (#4370), GAPDH (D16H11) XP® Rabbit mAb, PARP (46D11) rabbit mAb (#9532), Caspase-3 (8G10) rabbit mAb (#9665), GSK-3β (27C10) Rabbit mAb (#9315), Phospho-GSK-3β (Ser9) (5B3) Rabbit mAb (#9323), FoxO1 (C29H4) Rabbit mAb (#2880), Phospho-FoxO1 (Thr24)/FoxO3a (Thr32)/FoxO4 (Thr28) (4G6) Rabbit mAb (#2599), PRAS40 (D23C7) XP® Rabbit mAb (#2691), Phospho-PRAS40 (Thr246) (C77D7) Rabbit mAb (#2997), 4E-BP1 (#9644), 4E-BP1 (53H11) Rabbit mAb (#9644), p70 S6 Kinase (49D7) Rabbit mAb (#2708), Phospho-p70 S6 Kinase (Thr389) (108D2) Rabbit mAb (#9234). Antibodies were used at 1:1000. Protein lysate preparation and immunoblotting were carried out as previously described.
as §3

The test system of another experiment is FLT3-ITD. The description is as above. The experiment is classed as cell-based.
Text: as §4, §3

The next experiment concerns FLT3-ITD-D835Y. Described as above. The experiment is classed as cell-based.
Text: as §4, §3

On to `Cc1[nH]nc2ccc(-c3cncc(OC[C@@H](N)Cc4ccccc4)c3)cc12` [A674563], for which the 50% effective concentration (EC50) (commonly the concentration needed to bring the measured effect to its halfway point) in the experiment with HL-60 was determined as 0.387 µM; in the experiment on MOLM13 it was 0.17 µM; in the experiment with MOLM14, 0.061 µM; in the experiment with U937 it was 0.505 µM; in the experiment with MV4-11 it was 0.092 µM; in the experiment on PF382, 0.861 µM. In addition, the EC50 was found to be 0.4 µM with FLT3-ITD-F691L, 0.085 µM in the experiment with FLT3-ITD and 1.26 µM with FLT3-ITD-D835Y. Besides, at FLT3-ITD kinase, the dissociation constant (Kd) (usually the free concentration of one partner at which half of the binding sites on the other are occupied at equilibrium, for simple one-to-one binding) is 0.083 µM. In addition, the “anti-proliferation activity in patient primary cells” value in [1] is recorded as “potent anti-proliferation activity”. For the same compound, the “concentration at which apoptosis was induced” value in the experiment with MV4-11 cells was found to be 0.3 µM. In the experiment on MOLM14 cells, the “concentration at which induction of apoptosis was evident” value worked out at 1 µM. For the same compound, in the experiment on BaF3, the concentration for 50% growth inhibition (GI50) (as a rule, the concentration at which growth is held to half of that of the control) is 1.6 µM.

(Values after publication PMC5045383 (Oncotarget, 2016).)
